# Test results taken from US11655235B2, “Pyrrolidine and piperidine compounds” (YUHAN CORPORATION, priority 2019, dated 2023).
# Legend:
# Recombinant human FAP = biological target: T1, Recombinant human FAP (Homo sapiens, UniProt Q12884); assay: FAP FRET assay, FGF21-sequence FRET peptide substrate; format: biochemical; conditions: FRET peptide with human FGF21 sequence, 6 μM, 37° C.
# T1 construct: purchased R&D systems
# T1 sequence (Q12884 1-760): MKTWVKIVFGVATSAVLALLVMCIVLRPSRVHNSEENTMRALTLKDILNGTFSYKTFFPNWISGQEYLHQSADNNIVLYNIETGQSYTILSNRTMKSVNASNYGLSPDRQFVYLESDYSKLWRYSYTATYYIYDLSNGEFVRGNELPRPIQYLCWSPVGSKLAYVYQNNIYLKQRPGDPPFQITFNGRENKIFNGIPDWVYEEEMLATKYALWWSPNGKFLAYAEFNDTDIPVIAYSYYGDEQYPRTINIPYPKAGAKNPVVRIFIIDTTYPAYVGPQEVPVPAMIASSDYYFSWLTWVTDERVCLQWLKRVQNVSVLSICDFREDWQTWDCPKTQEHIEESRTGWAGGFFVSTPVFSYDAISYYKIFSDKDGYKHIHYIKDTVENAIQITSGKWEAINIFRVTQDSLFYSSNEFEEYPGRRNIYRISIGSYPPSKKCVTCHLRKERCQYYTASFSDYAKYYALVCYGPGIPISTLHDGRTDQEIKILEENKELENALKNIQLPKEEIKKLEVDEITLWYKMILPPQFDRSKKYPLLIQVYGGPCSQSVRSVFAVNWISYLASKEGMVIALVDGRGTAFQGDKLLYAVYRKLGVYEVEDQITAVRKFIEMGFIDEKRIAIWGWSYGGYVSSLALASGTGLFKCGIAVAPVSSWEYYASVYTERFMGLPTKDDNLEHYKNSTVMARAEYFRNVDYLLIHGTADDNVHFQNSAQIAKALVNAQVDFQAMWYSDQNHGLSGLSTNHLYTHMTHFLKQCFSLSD
# Protocol: The compounds according to the present technology were evaluated in terms of the inhibitory effect on the activity of dipeptidyl peptidases including FAP by using a substrate producing fluorescent substances upon enzymatic decomposition. The test was conducted at 25° C. to get a final reaction volume of 100 μL in a 96 black well plate. […] Briefly, the test compounds were dissolved in dimethyl sulfoxide (DMSO) at a concentration of 20 mM and then subjected to serial dilution, thereby creating an 8 point curve. As for the control group, a 6 point curve created by serial dilution of Talabostat in the same buffer solution was used. Fluorescence intensity was measured using a microplate reader (Flexstation3, Molecular Devices) under the wavelength condition exciting at 380 nm and reading the emission at 460 nm. The inhibitory effect of the test compounds was measured as a decrease (%) in the signal rate as compared to the control group without any inhibitor. Data was fixed to a logistic model with four variables and IC50 value was calculated using GraphPad Prism program. For the FAP FRET assay, recombinant human FAP (R&D systems) was diluted with 50 mM HEPES (pH 7.2) buffer comprising 150 mM of sodium chloride, 0.1 mg/ml of bovine serum albumin (BSA) and 1 mM EDTA to be 10 ng per final reaction. The test compounds were subjected to serial dilution in a buffer under the condition containing up to 0.1% of DMSO. FRET peptides containing human FGF21 sequence ([…]) conjugated with HyLite Fluor 488 and dark quencher QXL 520 (Anaspec) was used as a substrate. By dissolving in DMSO and then diluting in the same buffer, the substrate was added to be 6 μM per final reaction. All reactions of FRET assay was conducted at 37° C.
# DPP4 = DPP4 (Homo sapiens, UniProt P27487); assay: DPP4 inhibition, fluorogenic substrate H-Gly-Pro-AMC; format: biochemical; set-up: purchased R&D Systems; conditions: recombinant human DPP4
# Sequence of DPP4 (P27487 whole entry): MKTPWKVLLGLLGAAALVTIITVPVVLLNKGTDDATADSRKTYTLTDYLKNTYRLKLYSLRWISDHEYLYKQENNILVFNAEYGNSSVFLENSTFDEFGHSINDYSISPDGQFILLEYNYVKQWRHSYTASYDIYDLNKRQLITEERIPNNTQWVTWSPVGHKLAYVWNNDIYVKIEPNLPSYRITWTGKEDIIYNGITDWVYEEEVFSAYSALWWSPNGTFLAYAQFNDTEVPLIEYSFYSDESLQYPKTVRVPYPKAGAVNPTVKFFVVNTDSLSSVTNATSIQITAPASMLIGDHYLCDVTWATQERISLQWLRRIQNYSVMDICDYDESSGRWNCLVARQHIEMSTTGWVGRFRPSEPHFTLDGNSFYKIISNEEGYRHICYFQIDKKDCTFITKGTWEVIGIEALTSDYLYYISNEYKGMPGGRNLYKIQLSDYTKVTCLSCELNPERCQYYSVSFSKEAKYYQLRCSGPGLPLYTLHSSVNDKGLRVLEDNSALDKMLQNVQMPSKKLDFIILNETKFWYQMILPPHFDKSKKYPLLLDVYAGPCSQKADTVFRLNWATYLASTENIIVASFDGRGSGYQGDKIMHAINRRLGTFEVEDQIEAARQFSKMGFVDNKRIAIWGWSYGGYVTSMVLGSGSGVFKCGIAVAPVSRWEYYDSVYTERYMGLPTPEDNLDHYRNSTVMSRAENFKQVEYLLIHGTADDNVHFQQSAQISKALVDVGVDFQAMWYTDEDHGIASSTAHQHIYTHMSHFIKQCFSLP
IC50 (Recombinant human FAP),IC50 (DPP4),Structure (SMILES)
10.3 nM,≥ 100000 nM,"Cc1ccc2ncc(N(C)C3CCN(CC(=O)N4CCC[C@H]4C#N)CC3)cc2c1 [Example 322, (2S)-1-[2-[4-[methyl-(6-methyl-3-quinolyl)amino]-1-piperidyl]acetyl]pyrrolidine-2-carbonitrile]"
5.8 nM,≥ 100000 nM,"COc1ccc2ncc(N(C)C3CCN(CC(=O)N4CCC[C@H]4C#N)CC3)cc2c1 [Example 323, (S)-1-(2-(4-((6-methoxyquinolin-3-yl)(methyl)amino)piperidin-1-yl)acetyl)pyrrolidine-2-carbonitrile]"
25 nM,≥ 100000 nM,"COc1ccc2cc(N(C)C3CCN(CC(=O)N4CCC[C@H]4C#N)CC3)cnc2c1 [Example 324, (2S)-1-[2-[4-[(7-methoxy-3-quinolyl)-methyl-amino]-1-piperidyl]acetyl]pyrrolidine-2-carbonitrile]"
8.9 nM,≥ 100000 nM,"COc1cccc2cc(N(C)C3CCN(CC(=O)N4CCC[C@H]4C#N)CC3)cnc12 [Example 325, (2S)-1-[2-[4-[methyl-(8-methoxy-3-quinolyl)amino]-1-piperidyl]acetyl]pyrrolidine-2-carbonitrile]"
8.8 nM,50600 nM,"Cc1ccc2ncc(N(C)C3CCN(CC(=O)N4C[C@@H](F)C[C@H]4C#N)CC3)cc2c1 [Example 326, (2S,4S)-4-fluoro-1-[2-[4-[methyl-(6-methyl-3-quinolyl)amino]-1-piperidyl]acetyl]pyrrolidine-2-carbonitrile]"
3.1 nM,31500 nM,"COc1ccc2ncc(N(C)C3CCN(CC(=O)N4C[C@@H](F)C[C@H]4C#N)CC3)cc2c1 [Example 327, (2S,4S)-4-fluoro-1-(2-(4-((6-methoxyquinolin-3-yl)(methyl)amino)piperidin-1-yl)acetyl)pyrrolidine-2-carbonitrile]"
6 nM,21400 nM,"COc1ccc2cc(N(C)C3CCN(CC(=O)N4C[C@@H](F)C[C@H]4C#N)CC3)cnc2c1 [Example 328, (2S,4S)-4-fluoro-1-(2-(4-((7-methoxyquinolin-3-yl)(methyl)amino)piperidin-1-yl)acetyl)pyrrolidine-2-carbonitrile]"
7.5 nM,26300 nM,"COc1cccc2cc(N(C)C3CCN(CC(=O)N4C[C@@H](F)C[C@H]4C#N)CC3)cnc12 [Example 329, (2S,4S)-4-fluoro-1-[2-[4-[(8-methoxy-3-quinolyl)-methyl-amino]-1-piperidyl]acetyl]pyrrolidine-2-carbonitrile]"
36 nM,≥ 10000 nM,"COc1ccc2cc(NC3CCN(CC(=O)N4C[C@@H](F)C[C@H]4C#N)CC3)cnc2c1 [Example 366, (2S,4S)-4-fluoro-1-[2-[4-[(7-methoxy-3-quinolyl)amino]-1-piperidyl]acetyl]pyrrolidine-2-carbonitrile]"

# The next lines start with the compound.
Structure (SMILES),IC50 (Recombinant human FAP),IC50 (DPP4)
"CCN(c1cccc2ncccc12)C1CCN(CC(=O)N2C[C@@H](F)C[C@H]2C#N)CC1 [Example 305, (2S,4S)-1-[2-[4-[ethyl(5-quinolyl)amino]-1-piperidyl]acetyl]-4-fluoro-pyrrolidine-2-carbonitrile]",50.7 nM,2080 nM
"Cc1cccc2c(NC3CCN(CC(=O)N4C[C@@H](F)C[C@H]4C#N)CC3)ccnc12 [Example 343, (2S,4S)-4-fluoro-1-[2-[4-[(8-methyl-4-quinolyl)amino]-1-piperidyl]acetyl]pyrrolidine-2-carbonitrile]",30.7 nM,17400 nM
"N#C[C@@H]1C[C@H](F)CN1C(=O)CN1CCC(Nc2ccnc3c(F)cccc23)CC1 [Example 345, (2S,4S)-4-fluoro-1-[2-[4-[(8-fluoro-4-quinolyl)amino]-1-piperidyl]acetyl]pyrrolidine-2-carbonitrile]",19.3 nM,6470 nM
"Cc1ccc2ncc(NC3CCN(CC(=O)N4C[C@@H](F)C[C@H]4C#N)CC3)cc2c1 [Example 363, (2S,4S)-4-fluoro-1-[2-[4-[(6-methyl-3-quinolyl)amino]-1-piperidyl]acetyl]pyrrolidine-2-carbonitrile]",30.6 nM,≥ 10000 nM
"N#C[C@@H]1C[C@H](F)CN1C(=O)CN1CCC(Nc2cnc3ccc(F)cc3c2)CC1 [Example 364, (2S,4S)-4-fluoro-1-[2-[4-[(6-fluoro-3-quinolyl)amino]-1-piperidyl]acetyl]pyrrolidine-2-carbonitrile]",17.2 nM,9130 nM
"COc1ccc2ncc(NC3CCN(CC(=O)N4C[C@@H](F)C[C@H]4C#N)CC3)cc2c1 [Example 365, (2S,4S)-4-fluoro-1-[2-[4-[(6-methoxy-3-quinolyl)amino]-1-piperidyl]acetyl]pyrrolidine-2-carbonitrile]",22.3 nM,≥ 10000 nM
"COc1cccc2cc(NC3CCN(CC(=O)N4C[C@@H](F)C[C@H]4C#N)CC3)cnc12 [Example 367, (2S,4S)-4-fluoro-1-[2-[4-[(8-methoxy-3-quinolyl)amino]-1-piperidyl]acetyl]pyrrolidine-2-carbonitrile]",28.1 nM,≥ 10000 nM
"N#C[C@@H]1C[C@H](F)CN1C(=O)CN1CCC(Nc2cnc3ncccc3c2)CC1 [Example 368, (2S,4S)-4-fluoro-1-[2-[4-(1,8-naphthyridin-3-ylamino)-1-piperidyl]acetyl]pyrrolidine-2-carbonitrile]",36.7 nM,≥ 10000 nM
"N#C[C@@H]1C[C@H](F)CN1C(=O)CN1CCC(Nc2cnc3nc(Cl)ccc3c2)CC1 [Example 369, (2S,4S)-1-[2-[4-[(7-chloro-1,8-naphthyridin-3-yl)amino]-1-piperidyl]acetyl]-4-fluoro-pyrrolidine-2-carbonitrile]",62.1 nM,≥ 10000 nM
"CCOc1ccc(NC2CCN(CC(=O)N3CCC[C@H]3C#N)CC2)c2cccnc12 [Example 370, (2S)-1-[2-[4-[(8-ethoxy-5-quinolyl)amino]-1-piperidyl]acetyl]pyrrolidine-2-carbonitrile]",11 nM,36800 nM
"CC(=O)N1CCc2c(NC3CCN(CC(=O)N4C[C@@H](F)C[C@H]4C#N)CC3)cccc21 [Example 373, (2S,4S)-1-[2-[4-[(1-acetylindolin-4-yl)amino]-1-piperidyl]acetyl]-4-fluoro-pyrrolidine-2-carbonitrile]",92.4 nM,2760 nM
"Cc1cc(NC2CCN(CC(=O)N3C[C@@H](F)C[C@H]3C#N)CC2)cc2cccnc12 [Example 374, (2S,4S)-4-fluoro-1-[2-[4-[(8-methyl-6-quinolyl)amino]-1-piperidyl]acetyl]pyrrolidine-2-carbonitrile]",31.6 nM,5670 nM
"N#C[C@@H]1C[C@H](F)CN1C(=O)CN1CCC(Nc2cc(F)c3ncccc3c2)CC1 [Example 375, (2S,4S)-4-fluoro-1-[2-[4-[(8-fluoro-6-quinolyl)amino]-1-piperidyl]acetyl]pyrrolidine-2-carbonitrile]",22.9 nM,6960 nM
"N#C[C@@H]1CCCN1C(=O)CN1CCC(Nc2cc(=O)oc3ccccc23)CC1 [Example 378, (2S)-1-[2-[4-[(2-oxochromen-4-yl)amino]-1-piperidyl]acetyl]pyrrolidine-2-carbonitrile]",99.2 nM,24500 nM
"N#C[C@@H]1C[C@H](F)CN1C(=O)CN1CCC(Nc2cc(=O)oc3ccccc23)CC1 [Example 379, (2S,4S)-4-fluoro-1-[2-[4-[(2-oxochromen-4-yl)amino]-1-piperidyl]acetyl]pyrrolidine-2-carbonitrile]",47.4 nM,3380 nM
"N#C[C@@H]1C[C@H](F)CN1C(=O)CN1CCC(Nc2ccnc3cccnc23)CC1 [Example 380, (2S,4S)-4-fluoro-1-[2-[4-(1,5-naphthyridin-4-ylamino)-1-piperidyl]acetyl]pyrrolidine-2-carbonitrile]",77.1 nM,8160 nM
